Data reported in ChEMBL document CHEMBL4316583, “In Vitro and in Vivo Antitumor Effects of Plant-Derived Miliusanes and Their Induction of Cellular Senescence” (J Med Chem, 2019).
Active and inactive are the calls of the source. The rule behind the calls is not given here.

Tests used:
A-375 = experiment: Cytotoxicity against human A375 cells assessed as cell growth inhibition after 48 hrs by sulforhodamine B assay; format: functional, cell-based; details: A-375, 48 h
A549 = experiment: Cytotoxicity against human A549 cells assessed as cell growth inhibition after 48 hrs by sulforhodamine B assay; format: functional, cell-based; details: A549, 48 h
HCT-116 [1] = experiment: Cytotoxicity against human HCT116 cells assessed as cell growth inhibition after 48 hrs by sulforhodamine B assay; format: functional, cell-based; details: HCT-116, 48 h
HCT-116 [2] = experiment: Cytotoxicity against human HCT116 cells assessed as cell growth inhibition after 24 hrs by sulforhodamine B assay; format: functional, cell-based; details: HCT-116, 24 h
HCT-116 [3] = experiment: Antitumor activity against human HCT116 cells xenografted in nude BALB/c mouse assessed as tumor growth inhibition at 25 mg/kg, ip administered every other day for 21 days relative to control; format: functional; details: HCT-116, ip, 504 h, read-out: TGI
HCT-116 [4] = experiment: Induction of apoptosis in human HCT116 cells assessed as necrotic cells at 11.5 uM after 48 hrs by annexin V/propidium iodide-double staining based flow cytometry (reference value: […]); format: functional
HCT-116 [5] = experiment: Induction of apoptosis in human HCT116 cells assessed as early apoptotic cells at 11.5 uM after 48 hrs by annexin V/propidium iodide-double staining based flow cytometry (reference value: 4.8%); format: functional
HCT-116 [6] = experiment: Induction of apoptosis in human HCT116 cells assessed as late apoptotic cells at 11.5 uM after 48 hrs by annexin V/propidium iodide-double staining based flow cytometry (reference value: 4.6%); format: functional
HCT-116 [7] = experiment: Induction of cellular senescence in human HCT116 cells at 11.5 uM after 48 hrs by SA-beta-gal-staining based assay; format: functional, cell-based
HCT-116 [8] = experiment: Induction of apoptosis in human HCT116 cells assessed as viable cells at 11.5 uM after 48 hrs by annexin V/propidium iodide-double staining based flow cytometry (reference value: 88.3%); format: functional; details: HCT-116, 48 h, read-out: Activity
Mus musculus [9] = experiment: Induction of cellular senescence in BALB/c mouse xenografted with human HCT116 cells assessed as up-regulation of p16 protein expression at 20 mg/kg, administered every other day for 3 weeks by immunohistochemical analysis; format: functional, organism-based
HCT-116 [10] = experiment: Antiproliferative activity against human HCT116 cells assessed as inhibition of colony formation at 0.91 to 3.64 uM after 14 days by crystal violet-staining based assay; format: functional, cell-based
HCT-116 [11] = experiment: Antitumor activity against human HCT116 cells xenografted in nude BALB/c mouse assessed as tumor growth inhibition at 40 mg/kg, ip administered every other day for 21 days relative to control; format: functional; details: HCT-116, ip, 504 h, read-out: TGI
[12] = Toxicity in nude BALB/c mouse xenografted with human HCT116 cells assessed as body weight loss at 20 to 40 mg/kg, administered every other day for 21 days; format: organism-based; details: in vivo, 504 h
Mus musculus [13] = experiment: Induction of cellular senescence in BALB/c mouse xenografted with human HCT116 cells assessed as up-regulation of p21 protein expression at 20 mg/kg, administered every other day for 3 weeks by immunohistochemical analysis; format: functional, organism-based
HT-29 = experiment: Growth inhibition human HT-29 cells after 72 hrs by MTS assay; format: functional, cell-based
HCT-116 [14] = experiment: Antiproliferative activity against human HCT116 cells xenografted in BALB/c mouse at 20 mg/kg, administered every other day for 3 weeks by Ki67-staining based assay; format: functional, organism-based
HCT-116 [15] = experiment: Induction of cellular senescence in human HCT116 cells assessed as up-regulation of p21 protein expression at 0.2 to 0.8 ug/ml after 48 hrs by Western blot analysis; format: functional, cell-based
HCT-116 [16] = experiment: Antitumor activity against human HCT116 cells xenografted in nude BALB/c mouse assessed as tumor growth inhibition at 20 mg/kg, ip administered every other day for 21 days relative to control; format: functional; details: HCT-116, ip, 504 h, read-out: TGI
Mus musculus [17] = experiment: Effect on p27 protein expression in BALB/c mouse xenografted with human HCT116 cells at 20 mg/kg, administered every other day for 3 weeks by immunohistochemical analysis; format: functional, organism-based
[18] = test system: Panel NCI-60 (60 carcinoma cell lines); experiment: Growth inhibition human NCI60 cells after 48 hrs by sulforhodamine B assay; format: functional
[19] = Ratio of IC50 for human A2780DDP cells to IC50 for human A2780 cells after 72 hrs by MTS assay; format: functional
[20] = Ratio of IC50 for human HCT116/VM46 cells to IC50 for human HCT116 cells after 72 hrs by MTS assay; format: functional
HCT-116 [21] = experiment: Growth inhibition human HCT116 cells after 72 hrs by MTS assay; format: functional, cell-based; details: HCT-116, 72 h
[22] = Ratio of IC50 for human HCT116/VP35 cells to IC50 for human HCT116 cells after 72 hrs by MTS assay; format: functional
[23] = Ratio of IC50 for human A2780/TAX cells to IC50 for human A2780 cells after 72 hrs by MTS assay; format: functional
A2780 = experiment: Growth inhibition human A2780 cells after 72 hrs by MTS assay; format: functional, cell-based; details: A2780, 72 h
HCT-116 [24] = experiment: Induction of cellular senescence in human HCT116 cells assessed as up-regulation of p21 protein expression at 0.1 to 0.4 ug/ml after 48 hrs by Western blot analysis; format: functional, cell-based
HCT-116 [25] = experiment: Antiproliferative activity against human HCT116 cells assessed as inhibition of colony formation at 0.58 to 2.31 uM after 14 days by crystal violet-staining based assay; format: functional, cell-based

SMILES	IC50 (A-375)	IC50 (A549)	IC50 (HCT-116 [1])	IC50 (HCT-116 [2])	further results
CO[C@H]1CC(=O)[C@@]2(CC(=O)O[C@@H]2/C=C(\C)CCC=C(C)C)C[C@@H]1O	9.86 µM	18.4 µM	17.2 µM	–	–
CC(=O)O[C@@H]1C=CC(=O)[C@@]2(CC(=O)O[C@@H]2/C=C(\C)CC/C=C(\C)CO)C1	–	–	5.85 µM	6.97 µM	–
O=c1[nH]cc(F)c(=O)[nH]1 [FLUOROURACIL]	–	–	–	–	inhibition in vivo at 25 mg/kg (HCT-116 [3]): 32.5%; Activity (HCT-116 [4]): 4.4%; Activity (HCT-116 [5]): 4.7%; Activity (HCT-116 [6]): 12.6%; Activity (HCT-116 [7]): Active; viability at 11.5 µM (HCT-116 [8]): 78.3%
COC(=O)C[C@@]1(C/C=C(\C)CCC=C(C)C)C[C@H](OC(C)=O)C=C[C@H]1O	11.6 µM	18 µM	18.3 µM	–	–
CC(=O)O[C@H]1C[C@]2(CC(=O)O[C@@H]2/C=C(\C)CCC=C(C)C)C(=O)C[C@H]1Nc1ccccc1	–	–	2.5 µM	2.93 µM	Activity (Mus musculus [9]): Active; Activity (HCT-116 [10]): Active; inhibition in vivo at 40 mg/kg (HCT-116 [11]): 36.4%; Activity [12]: Non-Toxic; Activity (Mus musculus [13]): Active; growth inhibition (GI) (HT-29): Active; Activity (HCT-116 [14]): Active; Activity (HCT-116 [15]): Active; inhibition in vivo at 20 mg/kg (HCT-116 [16]): 36.4%; Activity (Mus musculus [17]): inactive
CC(=O)O[C@@H]1C=CC(=O)[C@@]2(CC(=O)O[C@@H]2/C=C(\C)CCCC(C)C=O)C1 (some centres undefined)	–	–	5.49 µM	7.18 µM	–
CC(=O)O[C@@H]1CCC(=O)[C@@]2(CC(=O)O[C@@H]2CC(C)CCCC(C)C)C1 (some centres undefined)	–	–	> 30 µM	> 30 µM	–
CO[C@@H]1CC(=O)[C@@]2(CC(=O)O[C@@H]2/C=C(\C)CCC=C(C)C)C[C@@H]1O	3.7 µM	4.36 µM	3.5 µM	–	GI50 [18]: 0.03 to 4.79 µM
CC(=O)O[C@@H]1CC[C@@H](OC(C)=O)[C@@]2(CC(=O)O[C@@H]2/C=C(\C)CCC=C(C)C)C1	–	–	> 30 µM	> 30 µM	–
CC(=O)O[C@@H]1C=CC(=O)[C@@](C/C=C(\C)CCC=C(C)C)(CC(=O)O)C1	> 57.5 µM	> 57.5 µM	> 57.5 µM	–	–
CC(=O)O[C@@H]1C=CC(=O)[C@@]2(CC(=O)O[C@@H]2/C=C(\C)CCC=C(CO)CO)C1	–	–	13.7 µM	12.9 µM	–
CC(=O)O[C@@H]1C=CC(=O)[C@@]2(CC(=O)O[C@@H]2CC(C)CCCC(C)C)C1 (some centres undefined)	–	–	1.95 µM	1.95 µM	–
CC(=O)O[C@H]1C[C@]2(CC(=O)O[C@@H]2/C=C(\C)CCC=C(C)C)C(=O)C[C@@H]1Nc1ccccc1	–	–	2.63 µM	3.43 µM	inhibition in vivo at 40 mg/kg (HCT-116 [11]): -8.6%; Activity [12]: Non-Toxic; inhibition in vivo at 20 mg/kg (HCT-116 [16]): 31.1%
COc1cc([C@@H]2c3cc4c(cc3[C@@H](O[C@@H]3O[C@@H]5CO[C@@H](C)O[C@H]5[C@H](O)[C@H]3O)[C@H]3COC(=O)[C@H]23)OCO4)cc(OC)c1O [ETOPOSIDE]	–	–	–	–	Ratio IC50 [19]: 2.5; Ratio IC50 [20]: 13.5; IC50 (HCT-116 [21]): 0.41 µM; Ratio IC50 [22]: 7.4; Ratio IC50 [23]: 1.7; IC50 (A2780): 0.07 µM
CC(=O)O[C@@H]1C=C[C@@H](O)[C@@]2(CC(=O)O[C@@H]2/C=C(\C)CCC=C(C)C)C1	7.24 µM	18.3 µM	13.3 µM	–	–
CC(C)=CCC/C(C)=C/[C@H]1OC(=O)C[C@]12C[C@H](O)C=C[C@H]2O	> 65 µM	> 65 µM	> 65 µM	–	–
COC(=O)[C@H](O)[C@@]1(C/C=C(\C)CCC=C(C)C)C[C@H](OC(C)=O)C=CC1=O	3.6 µM	7.15 µM	4.1 µM	–	–
CC(=O)O[C@@H]1C=CC(=O)[C@@]2(CC(=O)O[C@@H]2/C=C(\C)CCC=C(C)C)C1	1.67 µM	6.97 µM	1.97 to 2.7 µM	3.94 µM	Activity (HCT-116 [24]): Active; Activity (HCT-116 [25]): Active; GI50 [18]: 0.03 to 4.79 µM
CC(=O)O[C@H]1C[C@]2(CC(=O)O[C@@H]2/C=C(\C)CCC=C(C)C)C(OC(=O)c2ccccc2)=C[C@H]1N(C(=O)c1ccccc1)c1ccccc1	–	–	> 30 µM	> 30 µM	–
CC(=O)O[C@@H]1CC[C@@H](O)[C@@]2(CC(=O)O[C@@H]2/C=C(\C)CCC=C(C)C)C1	–	–	> 30 µM	> 30 µM	–
COC(=O)C[C@@]1(C/C=C(\C)CCC=C(C)C)C[C@H](OC(C)=O)C=CC1=O	10.4 µM	24.5 µM	13 µM	–	–
CC(=O)O[C@@H]1C=CC(=O)[C@@]2(CC(=O)O[C@@H]2/C=C(\C)C/C=C/C(C)(C)O)C1	4.25 µM	20.8 µM	4.2 µM	–	–
CC(=O)O[C@@H]1CCC(=O)[C@@]2(CC(=O)O[C@@H]2/C=C(\C)CCC=C(C)C)C1	–	–	> 30 µM	> 30 µM	–
CC(=O)O[C@H]1C[C@]2(CC(=O)O[C@@H]2/C=C(\C)CCC=C(C)C)C(=O)C[C@H]1N(C(=O)c1ccccc1)c1ccccc1	–	–	10.4 µM	14 µM	–
